Laboratory results published in patent publication US9850283B2, “Macrocyclic inhibitors of the PD-1/PD-L1 and CD80(B7-1)/PD-L1 protein/protein interactions” (BRISTOL-MYERS SQUIBB COMPANY, priority 2013, dated 2017).
Positions of bridges follow the written chain, without caps; N, C: chain ends. Non-standard residues stand in square brackets, D forms with d. Residues, ends and D or L forms follow the SMILES beside them. Phe(3-CF3) = N[C@@H](Cc1cccc(C(F)(F)F)c1)C(=O)O; Phe(4-CF3) = N[C@@H](Cc1ccc(C(F)(F)F)cc1)C(=O)O; Phe(4-tBu) = CC(C)(C)c1ccc(C[C@H](N)C(=O)O)cc1; Phe(3-Me) = Cc1cccc(C[C@H](N)C(=O)O)c1; Hyp = O=C(O)[C@@H]1C[C@@H](O)CN1; 2Pal = N[C@@H](Cc1ccccn1)C(=O)O; 3Pal = N[C@@H](Cc1cccnc1)C(=O)O; 4Pal = N[C@@H](Cc1ccncc1)C(=O)O; AllylGly = C=CC[C@H](N)C(=O)O; NMeNle = CCCC[C@H](NC)C(=O)O; NMeA = CN[C@@H](C)C(=O)O; Dap = NC[C@H](N)C(=O)O

What was measured:
Human PD-L1/PD-1 = biological target: T1, Human PD-L1/PD-1 (Homo sapiens, UniProt Q9NZQ7); test: HTRF PD-1-Ig/PD-L1-His binding assay (human PD-L1); conditions: cluster symbol; read-out: HTRF IC50 cluster
T1 construct: made in house; host or cells: HEK293T
T1 sequence (Q9NZQ7 with tags, fused parts or gaps): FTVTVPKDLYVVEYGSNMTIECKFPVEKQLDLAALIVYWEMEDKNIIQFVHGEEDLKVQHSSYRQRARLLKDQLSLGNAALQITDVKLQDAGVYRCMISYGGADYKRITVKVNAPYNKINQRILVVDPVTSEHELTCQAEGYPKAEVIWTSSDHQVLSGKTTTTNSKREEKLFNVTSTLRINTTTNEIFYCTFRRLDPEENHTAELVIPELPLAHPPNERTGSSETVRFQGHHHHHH
Summary of the method: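 Soluble Fc-fused PD-1 and His-tagged PD-L1 (truncated before the transmembrane region) were combined in dPBS with 0.1% (w/v) BSA and 0.05% (v/v) Tween-20. Binding was read by HTRF using europium cryptate anti-Ig antibody (1 nM final) and APC anti-His antibody (20 nM final).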

[1] = biological target: T2, LK35.2-hPD-L1 cells / PE-labeled PD-1-Ig (Homo sapiens, UniProt Q9NZQ7); test: LK35.2-hPD-L1 cell binding high-content screening assay; assay type: cell-based; conditions: cell binding assay, cell line not given; cluster symbol; read-out: CBA IC50 cluster
T2 construct: expressed in transfected cells; host or cells: LK35.2 mouse B cell line
T2 sequence (Q9NZQ7 19-290): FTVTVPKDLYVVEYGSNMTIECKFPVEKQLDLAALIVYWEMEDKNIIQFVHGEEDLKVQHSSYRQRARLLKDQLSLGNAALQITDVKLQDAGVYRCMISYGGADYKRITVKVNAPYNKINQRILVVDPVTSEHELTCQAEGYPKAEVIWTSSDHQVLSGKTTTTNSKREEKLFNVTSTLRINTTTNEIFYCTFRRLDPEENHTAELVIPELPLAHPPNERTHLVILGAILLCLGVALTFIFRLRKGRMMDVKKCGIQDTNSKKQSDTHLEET
Summary of the method: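 Compound effect on PD-1/PD-L1 binding is measured by imaging cell-associated phycoerythrin signal. Human PD-1-Ig (PE on Ig tag, 1 nM final) is applied with compound to a murine B cell line overexpressing human PD-L1 for 1 h at 37 °C in serum-containing RPMI.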

Row | Compound | IC50 (Human PD-L1/PD-1) [nM] | IC50 [1] [nM]
1 | C=CC[C@@H]1NC(=O)[C@H](Cc2c[nH]c3ccccc23)NC(=O)[C@@H]2CCCN2C(=O)[C@H](CC(C)C)NC(=O)[C@H](Cc2cnc[nH]2)NC(=O)[C@@H]2CCCN2C(=O)[C@H](CC(N)=O)NC(=O)[C@H](C)N(C)C(=O)[C@H](Cc2cnc[nH]2)NC(=O)CSC[C@@H](C(=O)NCC(N)=O)NC(=O)[C@H](CC=C)NC(=O)[C@H](CCCC)N(C)C(=O)[C@H](CCCC)N(C)C(=O)[C@H](Cc2c[nH]c3ccccc23)NC1=O [Example 7021] ({CH2CO}-H[NMeA]NPHLPW[AllylGly]W[NMeNle][NMeNle][AllylGly]CG-NH2; thioether N-14) | > 30.5 | > 74.3
2 | C=CC[C@@H]1NC(=O)[C@H](Cc2c[nH]c3ccccc23)NC(=O)[C@@H]2CCCN2C(=O)[C@H](CC(C)C)NC(=O)[C@H](CN)NC(=O)[C@@H]2CCCN2C(=O)[C@H](CC(N)=O)NC(=O)[C@H](C)N(C)C(=O)[C@H](Cc2ccc(O)cc2)NC(=O)CSC[C@@H](C(=O)NCC(N)=O)NC(=O)[C@H](CC=C)NC(=O)[C@H](CCCC)N(C)C(=O)[C@H](CCCC)N(C)C(=O)[C@H](Cc2c[nH]c3ccccc23)NC1=O [Example 7022] ({CH2CO}-Y[NMeA]NP[Dap]LPW[AllylGly]W[NMeNle][NMeNle][AllylGly]CG-NH2; thioether N-14) | 6.76 to 30.3 | 4.78 to 72.9
3 | C=CC[C@@H]1NC(=O)[C@H](Cc2c[nH]c3ccccc23)NC(=O)[C@@H]2CCCN2C(=O)[C@H](CC(C)C)NC(=O)[C@H](Cc2c[nH]cn2)NC(=O)[C@@H]2CCCN2C(=O)[C@H](CC(N)=O)NC(=O)[C@H](C)N(C)C(=O)[C@H](Cc2ccccn2)NC(=O)CSC[C@@H](C(=O)NCC(N)=O)NC(=O)[C@H](CC=C)NC(=O)[C@H](CCCC)N(C)C(=O)[C@H](CCCC)N(C)C(=O)[C@H](Cc2c[nH]c3ccccc23)NC1=O [Example 7023] ({CH2CO}-[2Pal][NMeA]NPHLPW[AllylGly]W[NMeNle][NMeNle][AllylGly]CG-NH2; thioether N-14) | > 30.5 | > 74.3
4 | CCCC[C@H]1C(=O)N(C)[C@@H](CCCC)C(=O)N[C@@H](CCCNC(=N)N)C(=O)N[C@H](C(=O)NCC(N)=O)CSCC(=O)N[C@@H](Cc2cccnc2)C(=O)N(C)[C@@H](C)C(=O)N[C@@H](CC(N)=O)C(=O)N2CCC[C@H]2C(=O)N[C@@H](Cc2c[nH]cn2)C(=O)N[C@@H](CC(C)C)C(=O)N2C[C@H](O)C[C@H]2C(=O)N[C@@H](Cc2c[nH]c3ccccc23)C(=O)N[C@@H](CO)C(=O)N[C@@H](Cc2c[nH]c3ccccc23)C(=O)N1C [Example 7024] ({CH2CO}-[3Pal][NMeA]NPHL[Hyp]WSW[NMeNle][NMeNle]RCG-NH2; thioether N-14) | 6.76 to 30.3 | 4.78 to 72.9
5 | CCCC[C@H]1C(=O)N(C)[C@@H](CCCC)C(=O)N[C@@H](CCCNC(=N)N)C(=O)N[C@H](C(=O)NCC(N)=O)CSCC(=O)N[C@@H](Cc2ccccn2)C(=O)N(C)[C@@H](C)C(=O)N[C@@H](CC(N)=O)C(=O)N2CCC[C@H]2C(=O)N[C@@H](Cc2c[nH]cn2)C(=O)N[C@@H](CC(C)C)C(=O)N2C[C@H](O)C[C@H]2C(=O)N[C@@H](Cc2c[nH]c3ccccc23)C(=O)N[C@@H](CO)C(=O)N[C@@H](Cc2c[nH]c3ccccc23)C(=O)N1C [Example 7025] ({CH2CO}-[2Pal][NMeA]NPHL[Hyp]WSW[NMeNle][NMeNle]RCG-NH2; thioether N-14) | > 30.5 | > 74.3
6 | CCCC[C@H]1C(=O)N(C)[C@@H](CCCC)C(=O)N[C@@H](CCCNC(=N)N)C(=O)N[C@H](C(=O)NCC(N)=O)CSCC(=O)N[C@@H](Cc2ccc(O)cc2)C(=O)N(C)[C@@H](C)C(=O)N[C@@H](CC(N)=O)C(=O)N2CCC[C@H]2C(=O)N[C@@H](Cc2ccccn2)C(=O)N[C@@H](CC(C)C)C(=O)N2C[C@H](O)C[C@H]2C(=O)N[C@@H](Cc2c[nH]c3ccccc23)C(=O)N[C@@H](CO)C(=O)N[C@@H](Cc2c[nH]c3ccccc23)C(=O)N1C [Example 7026] ({CH2CO}-Y[NMeA]NP[2Pal]L[Hyp]WSW[NMeNle][NMeNle]RCG-NH2; thioether N-14) | 6.76 to 30.3 | 4.78 to 72.9
7 | CCCC[C@H]1C(=O)N(C)[C@@H](CCCC)C(=O)N[C@@H](CCCNC(=N)N)C(=O)N[C@H](C(=O)NCC(N)=O)CSCC(=O)N[C@@H](Cc2ccc(O)cc2)C(=O)N(C)[C@@H](C)C(=O)N[C@@H](CC(N)=O)C(=O)N2CCC[C@H]2C(=O)N[C@@H](Cc2ccncc2)C(=O)N[C@@H](CC(C)C)C(=O)N2C[C@H](O)C[C@H]2C(=O)N[C@@H](Cc2c[nH]c3ccccc23)C(=O)N[C@@H](CO)C(=O)N[C@@H](Cc2c[nH]c3ccccc23)C(=O)N1C [Example 7028] ({CH2CO}-Y[NMeA]NP[4Pal]L[Hyp]WSW[NMeNle][NMeNle]RCG-NH2; thioether N-14) | 6.76 to 30.3 | 0.158 to 4.71
8 | CCCC[C@H]1C(=O)N(C)[C@@H](CCCC)C(=O)N[C@@H](CCCNC(=N)N)C(=O)N[C@H](C(=O)NCC(N)=O)CSCC(=O)N[C@@H](Cc2ccncc2)C(=O)N(C)[C@@H](C)C(=O)N[C@@H](CC(N)=O)C(=O)N2CCC[C@H]2C(=O)N[C@@H](Cc2cnc[nH]2)C(=O)N[C@@H](CC(C)C)C(=O)N2C[C@H](O)C[C@H]2C(=O)N[C@@H](Cc2c[nH]c3ccccc23)C(=O)N[C@@H](CO)C(=O)N[C@@H](Cc2c[nH]c3ccccc23)C(=O)N1C [Example 7029] ({CH2CO}-[4Pal][NMeA]NPHL[Hyp]WSW[NMeNle][NMeNle]RCG-NH2; thioether N-14) | > 30.5 | 4.78 to 72.9
9 | CCCC[C@H]1C(=O)N(C)[C@@H](CCCC)C(=O)N[C@@H](CCCNC(=N)N)C(=O)N[C@H](C(=O)NCC(N)=O)CSCC(=O)N[C@@H](Cc2ccc(C(F)(F)F)cc2)C(=O)N(C)[C@@H](C)C(=O)N[C@@H](CC(N)=O)C(=O)N2CCC[C@H]2C(=O)N[C@@H](CN)C(=O)N[C@@H](CC(C)C)C(=O)N2C[C@H](O)C[C@H]2C(=O)N[C@@H](Cc2c[nH]c3ccccc23)C(=O)N[C@@H](CO)C(=O)N[C@@H](Cc2c[nH]c3ccccc23)C(=O)N1C [Example 7030] ({CH2CO}-[Phe(4-CF3)][NMeA]NP[Dap]L[Hyp]WSW[NMeNle][NMeNle]RCG-NH2; thioether N-14) | 0.385 to 6.74 | 4.78 to 72.9
10 | CCCC[C@H]1C(=O)N(C)[C@@H](CCCC)C(=O)N[C@@H](Cc2ccncc2)C(=O)N[C@H](C(=O)NCC(N)=O)CSCC(=O)N[C@@H](Cc2ccc(O)cc2)C(=O)N(C)[C@@H](C)C(=O)N[C@@H](CC(N)=O)C(=O)N2CCC[C@H]2C(=O)N[C@@H](Cc2cnc[nH]2)C(=O)N[C@@H](CC(C)C)C(=O)N2C[C@H](O)C[C@H]2C(=O)N[C@@H](Cc2c[nH]c3ccccc23)C(=O)N[C@@H](CO)C(=O)N[C@@H](Cc2c[nH]c3ccccc23)C(=O)N1C [Example 7031] | 0.385 to 6.74 | 4.78 to 72.9
11 | CCCC[C@H]1C(=O)N(C)[C@@H](CCCC)C(=O)N[C@@H](Cc2ccccn2)C(=O)N[C@H](C(=O)NCC(N)=O)CSCC(=O)N[C@@H](Cc2ccc(O)cc2)C(=O)N(C)[C@@H](C)C(=O)N[C@@H](CC(N)=O)C(=O)N2CCC[C@H]2C(=O)N[C@@H](Cc2cnc[nH]2)C(=O)N[C@@H](CC(C)C)C(=O)N2C[C@H](O)C[C@H]2C(=O)N[C@@H](Cc2c[nH]c3ccccc23)C(=O)N[C@@H](CO)C(=O)N[C@@H](Cc2c[nH]c3ccccc23)C(=O)N1C [Example 7032] | 0.385 to 6.74 | 4.78 to 72.9
12 | CCCC[C@H]1C(=O)N(C)[C@@H](CCCC)C(=O)N[C@@H](Cc2cccnc2)C(=O)N[C@H](C(=O)NCC(N)=O)CSCC(=O)N[C@@H](Cc2ccc(O)cc2)C(=O)N(C)[C@@H](C)C(=O)N[C@@H](CC(N)=O)C(=O)N2CCC[C@H]2C(=O)N[C@@H](Cc2cnc[nH]2)C(=O)N[C@@H](CC(C)C)C(=O)N2C[C@H](O)C[C@H]2C(=O)N[C@@H](Cc2c[nH]c3ccccc23)C(=O)N[C@@H](CO)C(=O)N[C@@H](Cc2c[nH]c3ccccc23)C(=O)N1C [Example 7033] | 0.385 to 6.74 | 0.158 to 4.71
13 | CCCC[C@H]1C(=O)N(C)[C@@H](CCCC)C(=O)N[C@@H](CCCNC(=N)N)C(=O)N[C@H](C(=O)NCC(N)=O)CSCC(=O)N[C@@H](Cc2cccc(C(F)(F)F)c2)C(=O)N(C)[C@@H](C)C(=O)N[C@@H](CC(N)=O)C(=O)N2CCC[C@H]2C(=O)N[C@@H](CN)C(=O)N[C@@H](CC(C)C)C(=O)N2C[C@H](O)C[C@H]2C(=O)N[C@@H](Cc2c[nH]c3ccccc23)C(=O)N[C@@H](CO)C(=O)N[C@@H](Cc2c[nH]c3ccccc23)C(=O)N1C [Example 7034] ({CH2CO}-[Phe(3-CF3)][NMeA]NP[Dap]L[Hyp]WSW[NMeNle][NMeNle]RCG-NH2; thioether N-14) | 0.385 to 6.74 | 4.78 to 72.9
14 | CCCC[C@H]1C(=O)N(C)[C@@H](CCCC)C(=O)N[C@@H](CCCNC(=N)N)C(=O)N[C@H](C(=O)NCC(N)=O)CSCC(=O)N[C@@H](Cc2cccc(C)c2)C(=O)N(C)[C@@H](C)C(=O)N[C@@H](CC(N)=O)C(=O)N2CCC[C@H]2C(=O)N[C@@H](CN)C(=O)N[C@@H](CC(C)C)C(=O)N2C[C@H](O)C[C@H]2C(=O)N[C@@H](Cc2c[nH]c3ccccc23)C(=O)N[C@@H](CO)C(=O)N[C@@H](Cc2c[nH]c3ccccc23)C(=O)N1C [Example 7035] ({CH2CO}-[Phe(3-Me)][NMeA]NP[Dap]L[Hyp]WSW[NMeNle][NMeNle]RCG-NH2; thioether N-14) | 0.385 to 6.74 | 4.78 to 72.9
15 | CCCC[C@H]1C(=O)N(C)[C@@H](CCCC)C(=O)N[C@@H](CCCNC(=N)N)C(=O)N[C@H](C(=O)NCC(N)=O)CSCC(=O)N[C@@H](Cc2ccc(C(C)(C)C)cc2)C(=O)N(C)[C@@H](C)C(=O)N[C@@H](CC(N)=O)C(=O)N2CCC[C@H]2C(=O)N[C@@H](CN)C(=O)N[C@@H](CC(C)C)C(=O)N2C[C@H](O)C[C@H]2C(=O)N[C@@H](Cc2c[nH]c3ccccc23)C(=O)N[C@@H](CO)C(=O)N[C@@H](Cc2c[nH]c3ccccc23)C(=O)N1C [Example 7036] ({CH2CO}-[Phe(4-tBu)][NMeA]NP[Dap]L[Hyp]WSW[NMeNle][NMeNle]RCG-NH2; thioether N-14) | 6.76 to 30.3 | > 74.3
